Results reported in PMC7532663, “Pharmacological inhibition of mTORC1 increases CCKBR-specific tumor uptake of radiolabeled minigastrin analogue [^177Lu]Lu-PP-F11N” (Theranostics, 2020).
Like-named read-outs stand apart in the source and are kept apart here.

Tests used:
A431/CCKBR cells = experiment: CellTiter 96 AQueous (MTS) proliferation assay; assay type: cell-based, human
[1] = system: A431/CCKBR-tumor bearing nude mice; conditions: co-injection of 60 nmol minigastrin
[2] = 10 μM kinase inhibitor, MTS absorbance at 570 nm, reference 650 nm, mean of triplicate

Row | Compound | Proliferation [A570] (A431/CCKBR cells; [2]) | further results
1 | O=C1Nc2ccc(I)cc2/C1=C/c1cc(Br)c(O)c(Br)c1 [GW 5074] | 0.93 | –
2 | O=c1cc(N2CCOCC2)oc2c(-c3ccccc3)cccc12 [LY 294002] | 0.92 | –
3 | CC(C)n1cnc2c(NCc3ccccc3)nc(NCCO)nc21 [N9-isopropyl-olomoucine] | 0.93 | –
4 | CC(C)(C)c1cc(C=C(C#N)C#N)cc(C(C)(C)C)c1O [TYRPHOSTIN 9] | 0.62 | –
5 | N#C/C(=C\c1ccc(O)c(O)c1)C(=O)Nc1ccccc1 [AG-4 94] | 0.97 | –
6 | N#C/C(=C\c1ccc(O)c(O)c1)C(=O)NCc1ccccc1 [AG-4 90] | 1.03 | –
7 | Cn1cnc2c(NCc3ccccc3)nc(NCCO)nc21 [Olomoucine] | 0.98 | –
8 | Cl.O=S(=O)(c1cccc2c(Cl)cccc12)N1CCCNCC1 [ML-9·HCl] | 0.94 | –
9 | O=P(O)(O)C(O)c1ccc2ccccc2c1 (stereo not shown) [Hydroxy-2-naphthalenylmethylphosp honic acid] | 1.00 | –
10 | O.O.O=c1c(O)c(-c2ccc(O)c(O)c2)oc2cc(O)cc(O)c12 [Quercetin·2H2O] | – | Proliferation [A570] (A431/CCKBR cells): 1.03
11 | COc1ccc(S(=O)(=O)N(CCO)c2ccccc2CN(C)C/C=C/c2ccc(Cl)cc2)cc1 [KN-93] | 0.92 | –
12 | O=C1Nc2ccccc2/C1=C1/Nc2ccccc2/C1=N\O [Indirubin-3'-monooxime] | 0.87 | –
13 | COCc1cc(O)c(O)c(O)c1-c1c(COC)cc(O)c(O)c1O [2,2',3,3',4,4'-Hexahydroxy-1,1'-biphenyl-6,6'-dimethanol dimethyl ether] | – | Proliferation [A570] (A431/CCKBR cells): 0.98
14 | Oc1cc(O)cc(/C=C/c2ccc(O)c(O)c2)c1 [Piceatannol] | 1.02 | –
15 | Cl.Cl.O=S(=O)(c1cccc2cnccc12)N1CCCNCC1 [HA-1077·2HCl] | 0.99 | –
16 | Oc1c2ccccc2c2c3c(cccc13)N=N2 [SP 600125] | 0.77 | –
17 | N#C/C(=C\c1ccc(O)c(O)c1)C(N)=O [TYRPHOSTIN 46] | 1.04 | –
18 | Cc1ccc(-c2nn(C(C)(C)C)c3ncnc(N)c23)cc1 [PP1] | 0.80 | –
19 | CC(C)c1cc(/C=C(\C#N)C(=O)NCCCc2ccccc2)cc(C(C)C)c1O [SU1498] | 0.98 | –
20 | O=C(O)c1cc(NCc2cc(O)ccc2O)ccc1O [2-Hydroxy-5-(2,5-dihydroxybenzylamino)benzoi c acid] | 1.01 | –
21 | Cl.NCCNS(=O)(=O)c1cccc2cnccc12 [H-9·HCl] | 1.03 | –
22 | Cc1ccc(S(=O)(=O)/C=C/C#N)cc1 [BAY 11-7082] | 1.14 | –
23 | COc1cc(/C=C(\C#N)C(N)=O)cc(CSc2nc3ccccc3s2)c1O [AG-8 25] | 0.80 | –
24 | O=C1Cc2c([nH]c3ccc(Br)cc23)-c2ccccc2N1 [Kenpaullone] | 0.99 | –
25 | CC(C)(C)n1nc(-c2ccc(Cl)cc2)c2c(N)ncnc21 [PP2] | 0.86 | –

Row | Compound | Proliferation [A570] (A431/CCKBR cells; [2]) | further results
26 | Nc1ncnc2c1c(I)cn2[C@@H]1O[C@H](CO)[C@@H](O)[C@H]1O [5-Iodotubericidin] | 1.15 | –
27 | N#CC(=Cc1ccc2[nH]ccc2c1)C(N)=C(C#N)C#N [AG-3 70] | 0.97 | –
28 | Cl.NC(N)=NCCNS(=O)(=O)c1cccc2cnccc12 [HA-1004·HCl] | 1.05 | –
29 | CC1CNCCN1S(=O)(=O)c1cccc2cnccc12.Cl.Cl (stereo not shown) [H-7·2HCl] | 0.98 | –
30 | N#CC(C#N)=Cc1ccc([N+](=O)[O-])c(O)c1 [AG-1 26] | 1.01 | –
31 | CC(C)c1cnc(NC(=O)Cc2ccccc2)s1 [BML-259] | 1.09 | –
32 | CCCCCCCCCCCCC/C=C/[C@@H](O)[C@@H](N)CO [D-erythro-Sphingosine] | – | Proliferation [A570] (A431/CCKBR cells): 0.96
33 | N#C/C(=C\c1ccc(O)c(O)c1)C(N)=S [TYRPHOSTIN 47] | – | Proliferation [A570] (A431/CCKBR cells): 0.98
34 | CCCCCCCCCCCCCCCC(=O)OC(CC(=O)[O-])C[N+](C)(C)C (racemic) [Palmitoyl-DL-carnitine] | 0.91 | –
35 | N#CC(C#N)=Cc1cc(O)c(O)c(O)c1 [TYRPHOSTIN 25] | 1.12 | –
36 | COC[C@H]1OC(=O)c2coc3c2[C@@]1(C)C1=C(C3=O)[C@@H]2CCC(=O)[C@@]2(C)C[C@H]1OC(C)=O [Wortmannin] | 0.86 | –
37 | Cc1cc2ncc(-c3ccccc3)nc2cc1C [TYRPHOSTIN AG 1295] | 0.94 | –
38 | N#CC(C#N)=C(N)/C(C#N)=C/c1cc(O)c(O)c(O)c1 [TYRPHOSTIN 51] | 1.05 | –
39 | CC[C@H](CO)Nc1nc(NCc2ccccc2)c2ncn(C(C)C)c2n1 [Roscovi tine] | – | Proliferation [A570] (A431/CCKBR cells): 0.91
40 | C[S+]([O-])c1ccc(-c2nc(-c3ccncc3)c(-c3ccc(F)cc3)[nH]2)cc1 (stereo not shown) [SB-203580] | – | Proliferation [A570] (A431/CCKBR cells): 0.95
41 | CC(=O)c1c(O)c(C)c(O)c(Cc2c(O)c3c(c(C(=O)/C=C/c4ccccc4)c2O)OC(C)(C)C=C3)c1O [Rottle rin] | 0.64 | –
42 | N#CC(=C(/N)Sc1ccccc1N)/C(C#N)=C(/N)Sc1ccccc1N [U-0126] | 0.87 | –
43 | COc1cc2ncnc(Nc3cccc(Cl)c3)c2cc1OC [TYRPHOSTIN AG 1478] | 0.72 | –
44 | C=CC(=O)c1ccc2ccccc2c1 [ZM 449829] | 0.98 | –
45 | Cl.O=S(=O)(c1cccc2c(I)cccc12)N1CCCNCC1 [ML-7·HCl] | 0.95 | –
46 | COC(=O)/C=C/c1cc(O)ccc1O [Erbstatin analog] | 1.12 | –
47 | CS(=O)(=O)O.Cn1cc(C2=C(c3cn(CCCSC(=N)N)c4ccccc34)C(=O)NC2=O)c2ccccc21 [Ro 31-8220 mesylate] | 0.51 | –
48 | Cc1cc(O)c2c(=O)c3c(O)cc(O)c4c5c(O)cc(O)c6c(=O)c7c(O)cc(C)c8c1c2c(c34)c(c78)c65 [Hypericin] | 0.93 | –
49 | Nc1ncc2[nH]cnc2n1 [2-Am inopurine] | 0.96 | –
50 | CC1=C(O)C(=O)[C@@H]2O[C@@H]2C1=O [Terreic acid] | – | Proliferation [A570] (A431/CCKBR cells): 1.06

Row | Compound | Proliferation [A570] (A431/CCKBR cells; [2]) | further results
51 | CN[C@@H]1C[C@H]2O[C@@](C)([C@@H]1OC)n1c3ccccc3c3c4c(c5c6ccccc6n2c5c31)C(=O)NC4 [Staurosporine] | 0.51 | –
52 | BML-265 | 0.78 | –
53 | C[C@@H](N)[C@H]1CC[C@H](C(=O)Nc2ccncc2)CC1.Cl.Cl [Y-27632·2HCl] | 1.02 | –
54 | CN([C@@H](Cc1ccc(OS(=O)(=O)c2cccc3cnccc23)cc1)C(=O)N1CCN(c2ccccc2)CC1)S(=O)(=O)c1cccc2cnccc12 [KN-62] | 0.82 | –
55 | COc1cccc(-c2cc(=O)c3ccccc3o2)c1N [PD-98059] | 1.01 | –
56 | LEEEEEAYGWMDF [minigastrin] | – | [177Lu]Lu-PP-F11N kidney uptake with blocking [1]: not affected; [177Lu]Lu-PP-F11N uptake in the tumor and stomach with blocking [1]: reduced
57 | CNCCNS(=O)(=O)c1cccc2cnccc12 [H-8] | 0.99 | –
58 | Cc1ccc(NC(=O)c2cccc(N(C)C)c2)cc1NC(=O)c1ccc(O)cc1 [ZM 336372] | 0.87 | –
59 | O=C(O)c1cc(N(Cc2ccccc2O)Cc2cc(O)ccc2O)ccc1O [Lavendustin A] | 1.15 | –
60 | CN(C)c1ccc(/C=C2\C(=O)Nc3ccccc32)cc1 [SU 4312] | 0.97 | –
61 | N#CC(C#N)=Cc1cc(O)c(O)c([N+](=O)[O-])c1 [TYRPHOSTIN AG 1288] | 0.97 | –
62 | OC[C@H]1O[C@@H](n2cnc3cc(Cl)c(Cl)cc32)[C@H](O)[C@@H]1O [5,6-dichloro-1-β-D-ribofuranosylben zimidazole] | – | Proliferation [A570] (A431/CCKBR cells): 0.99
63 | CN(C)CCCn1cc(C2=C(c3c[nH]c4ccccc34)C(=O)NC2=O)c2ccccc21 [GF 109203X] | 0.95 | –
64 | O=C1Nc2ccccc2/C1=C1/Nc2ccccc2C1=O [Indirubin] | 1.09 | –
65 | N#CC(C#N)=Cc1ccc(O)c(O)c1 [TYRPHOSTIN 23] | 1.07 | –
66 | COc1cc2ncc(-c3ccccc3)nc2cc1OC [AG-1296] | 0.94 | –
67 | O=c1cc(-c2ccc(O)cc2)oc2cc(O)cc(O)c12 [Apigenin] | 0.90 | –
68 | Cn1cnc2nc(NCCO)nc(NCc3ccccc3)c21 [Iso-olomoucine] | 0.96 | –
69 | CO[C@@H]1[C@H](N(C)C(=O)c2ccccc2)C[C@H]2O[C@]1(C)n1c3ccccc3c3c4c(c5c6ccccc6n2c5c31)C(=O)NC4 [PKC-4 12] | 0.78 | –
70 | O=c1c(-c2ccc(O)cc2)coc2cc(O)cc(O)c12 [Genistein] | 0.95 | –
71 | Cl.Cl.O=S(=O)(NCCNC/C=C/c1ccc(Br)cc1)c1cccc2cnccc12 [H-89·2HCl] | 0.97 | –
72 | Oc1ccc(-c2nc(-c3ccncc3)c(-c3ccc(F)cc3)[nH]2)cc1 [SB-202190] | 1.02 | –
73 | C/C(O)=C(\C#N)C(=O)Nc1cc(Br)ccc1Br [LFM-A13] | – | Proliferation [A570] (A431/CCKBR cells): 0.93
74 | CC(C)(C)c1cc(/C=C(\C#N)C(N)=S)cc(C(C)(C)C)c1O [AG-8 79] | 0.80 | –
75 | O=c1c(-c2ccc(O)cc2)coc2cc(O)ccc12 [Daidzein] | 0.92 | –
